In general, melting point refers to the temperature, or range, at which the solid turns liquid. In turn, `CCOc1cc([C@@H](CS(C)(=O)=O)N2Cc3cccc(N)c3C2=O)ccc1OC` [Example 5.5, 7-amino-2-[(1S)-1-(3-ethoxy-4-methoxy-phenyl)-2-methanesulfonyl-ethyl]-2,3-dihydro-isoindol-1-one] yielded a melting point of 135 to 137 °C.

Source of the values: patent US8716252B2, “(Methylsulfonyl) ethyl benzene isoindoline derivatives and their pharmaceutical uses” (Celgene Corporation, priority 2009, dated 2014).
